Assay results: patent publication US20040034105A1, “Use of 1-phenyl-3-dimethylaminopropane compounds for treatment of urinary incontinence” (Gruenenthal GmbH, priority 2000, published 2004)
Marks after values point to notes of the source that are not given here.

How the values were obtained:
[1] = test system: female Sprague-Dawley rats; assay: Cystometry tests on conscious fresh rats; type: in vivo, rat; details: for BC Bladder Capacity (change compared to the baseline value) / ICI Inter-Contraction Interval (change compared to the baseline value) / TP Threshold Pressure (change compared to the baseline value): effect maximum, mean of 3 micturition cycles; for Activity of the enantiomers of racemic compound 1 in cystometry: iv
Description: Three days after implantation of bladder and venous catheters the animals were investigated in the conscious state while freely moving. The bladder catheter was connected to a pressure gauge and an injection pump. The animals were placed in metabolic cages that enable the volume of urine to be measured. Physiological saline solution was infused (10 ml/hour) into the emptied bladder and the bladder pressure and volume of urine were continuously recorded. After a stabilisation phase a 20-minute phase was recorded that was characterised by normal, reproducible micturition cycles. The following parameters among others were measured:
threshold pressure TP, bladder pressure immediately before micturition,
bladder capacity BC, residual volume after prior micturition plus volume of infused solution during the filling phase,
intercontraction interval ICI, i.e. the time interval between consecutive micturition.
An increase in the threshold pressure (TP) indicates an important therapeutic effect in one of the medical conditions covered by the invention. Also, the intercontraction interval (ICI) is an important parameter for measuring the physiological effectiveness of a substance in the treatment of urinary incontinence, as is the bladder capacity (BC). In this connection, on account of the widely differing causes of the symptoms of these disease patterns it is not necessary to influence positively all three parameters in order for a medicament to be effective.
After recording three reproducible micturition cycles to provide a baseline value, the test substances 1 (1.0 mg/kg), 2 (0.1; 0.3 and 0.5 mg/kg), 21 (0.5 mg/kg), 7 (0.3 mg/kg), 8 (1.0 mg/kg), 9 (0.5 mg/kg) and 11 (0.5 mg/kg) in a vehicle comprising 0.9% NaCl were applied intravenously and the effect on the cystometric parameters was recorded at 90 to 120 minutes. In the effect maximum the mean value of 3 micturition cycles was determined and recorded as a percentage change compared to the baseline value (Table 1).

female rats = assay: Cystometry investigations in narcotised fresh rats (suppression of spontaneous bladder contractions); type: in vivo, rat; details: intravenous, cumulative, mean value from at least two experiments
Description: The cystometric investigation was carried out on fresh female rats according to the method of Kimura et al. (Kimura et al., 1996, Int. J. Urol. 3: 218-227). The abdomen of narcotised ventilated rats is opened and the ureter is ligated. The urine is drawn off from the kidneys. A catheter is inserted into the bladder and secured in place. […] The test substance is applied intravenously in a cumulative manner after stable starting values were reached. An effect on the bladder function is manifested by the suppression of the spontaneous contractions. The disappearance of the contractions over a period of 10 minutes serves as a parameter for their suppression.
With all the substances listed there was a measurable suppression of the spontaneous contractions in rats, Table 2 showing the mean value of the lowest dose from at least two experiments, in which contractions disappeared for the first time over a period of 10 minutes.

CC[C@](O)(c1cccc(OC)c1)[C@H](C)CN(C)C.Cl (racemic) [Compound 1, (2RS,3RS)-1-dimethylamino-3-(3-methoxyphenyl)-2-methylpentan-3-ol, hydrochloride]
BC Bladder Capacity (change compared to the baseline value) ([1]; 1.0 mg/kg iv): +31%*** | ICI Inter-Contraction Interval (change compared to the baseline value) ([1]; 1.0 mg/kg iv): +42% | TP Threshold Pressure (change compared to the baseline value) ([1]; 1.0 mg/kg iv): +94%**

CC[C@](O)(c1ccc(Cl)c(Cl)c1)[C@H](C)CN(C)C.Cl (racemic) [Compound 3, (2RS,3RS)-3-(3,4-dichlorophenyl)-1-dimethylamino-2-methylpentan-3-ol, hydrochloride]
Lowest Dose at which contractions disappeared for the first time over a period of 10 minutes (female rats): 23.3 mg/kg

CC[C@](O)(c1cccc(C(F)F)c1)[C@H](C)CN(C)C.Cl (racemic) [Compound 4, (2RS,3RS)-3-(3-difluoromethylphenyl)-1-dimethylamino-2-methylpentan-3-ol, hydrochloride]
Lowest Dose at which contractions disappeared for the first time over a period of 10 minutes (female rats): 1.7 mg/kg

CC[C@](O)(c1cccc(SC)c1)[C@H](C)CN(C)C.Cl (racemic) [Compound 5, (2RS,3RS)-1-dimethylamino-2-methyl-3-(3-methylsulfanylphenyl)-pentan-3-ol, hydrochloride]
Lowest Dose at which contractions disappeared for the first time over a period of 10 minutes (female rats): 2.3 mg/kg

COc1cccc(C(O)(CCN(C)C)C(C)(C)C)c1.Cl (racemic) [Compound 6, (3RS)-1-dimethylamino-3-(3-methoxyphenyl)-4,4-dimethylpentan-3-ol, hydrochloride]
Lowest Dose at which contractions disappeared for the first time over a period of 10 minutes (female rats): 16.7 mg/kg

CCC(O)(c1cccc(O)c1)C(C)CN(C)C.Cl (racemic) [Compound 7, (2RS,3RS)-3-(3-dimethylamino-1-ethyl-1-hydroxy-2-methylpropyl)-phenol, hydrochloride]
BC Bladder Capacity (change compared to the baseline value) ([1]; 0.3 mg/kg iv): +32%* | ICI Inter-Contraction Interval (change compared to the baseline value) ([1]; 0.3 mg/kg iv): +28%* | TP Threshold Pressure (change compared to the baseline value) ([1]; 0.3 mg/kg iv): +95%**

C[C@H](CN(C)C)[C@@](C)(O)c1cccc(O)c1.Cl (racemic) [Compound 8, (1RS,2RS)-3-(3-dimethylamino-1-hydroxy-1,2-dimethylpropyl)-phenol, hydrochloride]
BC Bladder Capacity (change compared to the baseline value) ([1]; 1.0 mg/kg iv): +7% | ICI Inter-Contraction Interval (change compared to the baseline value) ([1]; 1.0 mg/kg iv): +14.4% | TP Threshold Pressure (change compared to the baseline value) ([1]; 1.0 mg/kg iv): +60%**

CCC(O)(c1cccc(OC)c1)C1(CN(C)C)CCCCC1.Cl (racemic) [Compound 13, (1RS)-1-(1-dimethylaminomethylcyclohexyl)-1-(3-methoxyphenyl)-propan-1-ol, hydrochloride]
Lowest Dose at which contractions disappeared for the first time over a period of 10 minutes (female rats): 20.0 mg/kg

CC[C@](O)(c1ccc(Cl)cc1)[C@H](C)CN(C)C.Cl (racemic) [Compound 14, (2RS,3RS)-3-(4-chlorophenyl)-1-dimethylamino-2-methylpentan-3-ol, hydrochloride]
Lowest Dose at which contractions disappeared for the first time over a period of 10 minutes (female rats): 20.0 mg/kg

CC[C@](O)(c1cccc(OC)c1)[C@H](C)CN(C)C.Cl [Compound 2, (+)-(2R,3R)-1-dimethylamino-3-(3-methoxyphenyl)-2-methylpentan-3-ol, hydrochloride]
BC Bladder Capacity (change compared to the baseline value) ([1]; 0.1 mg/kg iv): +7.8% | ICI Inter-Contraction Interval (change compared to the baseline value) ([1]; 0.1 mg/kg iv): +15.6% | TP Threshold Pressure (change compared to the baseline value) ([1]; 0.1 mg/kg iv): +28.5%** | BC Bladder Capacity (change compared to the baseline value) ([1]; 0.3 mg/kg iv): +33%* | ICI Inter-Contraction Interval (change compared to the baseline value) ([1]; 0.3 mg/kg iv): +28%* | TP Threshold Pressure (change compared to the baseline value) ([1]; 0.3 mg/kg iv): +122%** | BC Bladder Capacity (change compared to the baseline value) ([1]; 0.5 mg/kg iv): +20.6%* | ICI Inter-Contraction Interval (change compared to the baseline value) ([1]; 0.5 mg/kg iv): +28.6%** | TP Threshold Pressure (change compared to the baseline value) ([1]; 0.5 mg/kg iv): +77.5%** | Activity of the enantiomers of racemic compound 1 in cystometry [1]: effectively active

C[C@H](CN(C)C)[C@@](C)(O)c1cccc(O)c1.Cl [Compound 9, (+)-(1R,2R)-3-(3-dimethylamino-1-hydroxy-1,2-dimethylpropyl)-phenol, hydrochloride]
BC Bladder Capacity (change compared to the baseline value) ([1]; 0.5 mg/kg iv): +50%** | ICI Inter-Contraction Interval (change compared to the baseline value) ([1]; 0.5 mg/kg iv): +21%* | TP Threshold Pressure (change compared to the baseline value) ([1]; 0.5 mg/kg iv): +56%**

C[C@H](CN(C)C)[C@@](C)(O)c1cccc(O)c1.Cl [Compound 10, (+)-(1R,2R)-3-(3-dimethylamino-1-hydroxy-1,2-dimethylpropyl)-phenol, hydrochloride]
Lowest Dose at which contractions disappeared for the first time over a period of 10 minutes (female rats): 0.2 mg/kg

CC[C@@H](c1cccc(O)c1)[C@@H](C)CN(C)C.Cl [Compound 11, (−)-(1R,2R)-3-(3-dimethylamino-1-ethyl-2-methylpropyl)-phenol, hydrochloride]
BC Bladder Capacity (change compared to the baseline value) ([1]; 0.5 mg/kg iv): +11% | ICI Inter-Contraction Interval (change compared to the baseline value) ([1]; 0.5 mg/kg iv): +22.6% | TP Threshold Pressure (change compared to the baseline value) ([1]; 0.5 mg/kg iv): +9%

CC[C@](OC(C)=O)(c1cccc(OC)c1)[C@H](C)CN(C)C.Cl [Compound 12, (+)-(1R,2R)-acetic acid-3-dimethylamino-1-ethyl-1-(3-methoxyphenyl)-2-methylpropyl ester, hydrochloride]
Lowest Dose at which contractions disappeared for the first time over a period of 10 minutes (female rats): 30.0 mg/kg

CC[C@@](O)(c1cccc(OC)c1)[C@@H](C)CN(C)C.Cl [Compound 21, (−)-(2S,3S)-1-dimethylamino-3-(3-methoxyphenyl)-2-methylpentan-3-ol, hydrochloride]
BC Bladder Capacity (change compared to the baseline value) ([1]; 0.5 mg/kg iv): +3% | ICI Inter-Contraction Interval (change compared to the baseline value) ([1]; 0.5 mg/kg iv): +10% | TP Threshold Pressure (change compared to the baseline value) ([1]; 0.5 mg/kg iv): −1.1% | Activity of the enantiomers of racemic compound 1 in cystometry [1]: plays only a contributory role
